In the assay the target is T1, BRM (Homo sapiens, UniProt P51531).
T1 construct: In-Cell Western Screen of BRM Degradation in SW1573 Cells; endogenous in cells; host or cells: SW1573
In words: In-cell Western screen of BRM degradation in SW1573 cells (Dmax and DC50). It is filed as cell-based. The procedure, abridged:
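Near-infrared imaging on a LI-COR Odyssey (800 and 680 nm channels) quantifies BRM remaining in fixed SW1573 cells. Cells are dosed for 18-20 h at 0.1% final DMSO, and degradation is expressed as Dmax and DC50.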

The mark [1] stands for this setting: BRM degradation, SW1573 cells, Table 2D, read-out: *DC50.
Setting [2] is: BRM degradation, SW1573 cells, read-out: DC50.
Where [3] appears, read: BRM degradation, SW1573 cells, when tested at the top concentration of between 0.3 and 10 μM, read-out: Dmax (%) (% degraded).
Setting [4] is: SW1573, % degraded, when tested at the top concentration of between 0.3 and 10 μM, read-out: BRM Dmax (%).
[5] abbreviates: target protein degradation, read-out: BRM DC50.
The mark [6] stands for this setting: BRM degradation, SW1573 cells, Table 2D, read-out: **Dmax (%) (% degraded).

Structures are written as SMILES. Like-named read-outs stand apart in the source and are kept apart here.

T1 sequence (P51531 whole entry): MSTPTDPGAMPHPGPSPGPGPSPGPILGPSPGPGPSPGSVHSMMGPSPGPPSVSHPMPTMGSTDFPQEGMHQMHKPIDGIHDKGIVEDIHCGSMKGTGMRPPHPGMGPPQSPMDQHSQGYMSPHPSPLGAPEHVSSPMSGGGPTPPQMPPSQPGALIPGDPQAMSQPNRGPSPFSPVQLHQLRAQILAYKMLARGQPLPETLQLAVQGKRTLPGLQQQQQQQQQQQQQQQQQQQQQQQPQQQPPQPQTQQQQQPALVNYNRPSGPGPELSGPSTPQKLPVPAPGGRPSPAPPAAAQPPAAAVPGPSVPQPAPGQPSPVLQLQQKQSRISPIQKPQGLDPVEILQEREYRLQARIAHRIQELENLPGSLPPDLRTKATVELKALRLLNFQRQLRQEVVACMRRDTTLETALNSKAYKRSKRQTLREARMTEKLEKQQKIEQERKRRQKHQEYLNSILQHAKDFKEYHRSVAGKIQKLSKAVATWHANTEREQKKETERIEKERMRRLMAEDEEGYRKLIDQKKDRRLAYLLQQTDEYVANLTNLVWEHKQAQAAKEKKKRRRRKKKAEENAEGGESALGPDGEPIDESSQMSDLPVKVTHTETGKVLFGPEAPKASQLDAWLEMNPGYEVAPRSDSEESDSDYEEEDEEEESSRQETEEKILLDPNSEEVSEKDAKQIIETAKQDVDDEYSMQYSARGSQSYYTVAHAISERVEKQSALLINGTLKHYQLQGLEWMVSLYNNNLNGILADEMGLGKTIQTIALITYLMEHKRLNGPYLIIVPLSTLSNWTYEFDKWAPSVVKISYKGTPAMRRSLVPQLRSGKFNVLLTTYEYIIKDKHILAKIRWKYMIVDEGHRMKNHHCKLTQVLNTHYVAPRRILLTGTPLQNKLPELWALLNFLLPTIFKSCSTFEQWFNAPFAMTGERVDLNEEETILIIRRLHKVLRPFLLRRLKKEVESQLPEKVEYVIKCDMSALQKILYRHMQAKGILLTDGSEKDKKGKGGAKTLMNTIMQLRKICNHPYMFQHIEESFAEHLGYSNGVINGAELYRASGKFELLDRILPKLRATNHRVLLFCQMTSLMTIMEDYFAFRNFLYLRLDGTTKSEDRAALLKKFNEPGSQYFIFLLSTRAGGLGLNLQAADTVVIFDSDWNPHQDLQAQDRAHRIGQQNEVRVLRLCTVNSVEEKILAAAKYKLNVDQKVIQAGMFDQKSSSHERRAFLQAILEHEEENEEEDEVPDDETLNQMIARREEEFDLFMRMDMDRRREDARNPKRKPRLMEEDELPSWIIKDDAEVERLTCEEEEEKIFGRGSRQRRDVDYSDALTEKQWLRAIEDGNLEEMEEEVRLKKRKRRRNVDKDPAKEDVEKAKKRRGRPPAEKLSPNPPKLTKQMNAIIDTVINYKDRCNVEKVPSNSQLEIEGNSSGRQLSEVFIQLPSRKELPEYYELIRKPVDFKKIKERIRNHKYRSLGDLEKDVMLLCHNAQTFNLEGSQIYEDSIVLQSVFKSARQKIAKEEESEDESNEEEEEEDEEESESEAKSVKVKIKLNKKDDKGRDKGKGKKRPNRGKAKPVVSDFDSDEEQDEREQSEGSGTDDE

On to `CC(C)[C@H](C(=O)N1C[C@H](O)C[C@H]1C(=O)N[C@@H](C)c1ccc(-n2ccnc2N)cc1)c1cc(N2CCC(CN3CCC(O[C@H]4C[C@H](Oc5cc(N6C7CCC6CN(c6cc(-c8ccccc8O)nnc6N)C7)ccn5)C4)CC3)CC2)no1` [compound 620, (2S,4R)-N-((S)-1-(4-(2-amino-1H-imidazol-1-yl)phenyl)ethyl)-1-((2S)-2-(3-(4-((4-((1r,3r)-3-((4-(3-(3-amino-6-(2-hydroxyphenyl)pyridazin-4-yl)-3,8-diazabicyclo[3.2.1]octan-8-yl)pyridin-2-yl)oxy)cyclobutoxy)piperidin-1-yl)methyl)piperidin-1-yl)isoxazol-5-yl)-3-methylbutanoyl)-4-hydroxypyrrolidine-2-carboxamide], for which, under setting [1], the DC50 (in general, the midpoint of the concentration-degradation curve) was above 30 nM.

As to `Cc1ncsc1-c1ccc(CNC(=O)[C@@H]2C[C@@H](O)CN2C(=O)[C@@H](c2cc(CCCOCCOCCOCCOCCn3cc(-c4cc(-c5ccccc5O)nnc4N)cn3)no2)C(C)C)cc1` [compound 26, (2S,4R)-1-[(2R)-2-[3-(1-[4-[3-amino-6-(2-hydroxyphenyl)pyridazin-4-yl]-1H-pyrazol-1-yl]-3,6,9,12-tetraoxapentadecan-15-yl)-1,2-oxazol-5-yl]-3-methylbutanoyl]-4-hydroxy-N-[[4-(4-methyl-1,3-thiazol-5-yl)phenyl]methyl]pyrrolidine-2-carboxamide], the DC50 under setting [2] fell in the range of 10 to 30 nM. For the same compound, the Dmax (commonly the greatest extent of degradation seen) under setting [3] was above 75%.

In the case of `Cc1ncsc1-c1ccc([C@H](C)NC(=O)[C@@H]2C[C@@H](O)CN2C(=O)[C@@H](c2cc(OC/C=C/c3ncc(O[C@H]4C[C@H](Oc5cc(N6C7CCC6CN(c6cc(-c8ccccc8O)nnc6N)C7)ccn5)C4)cn3)no2)C(C)C)cc1` [compound 392, (2S,4R)-1-((2R)-2-(3-(((E)-3-(5-((1r,3R)-3-((4-(3-(3-amino-6-(2-hydroxyphenyl)pyridazin-4-yl)-3,8-diazabicyclo[3.2.1]octan-8-yl)pyridin-2-yl)oxy)cyclobutoxy)pyrimidin-2-yl)allyl)oxy)isoxazol-5-yl)-3-methylbutanoyl)-4-hydroxy-N-((S)-1-(4-(4-methylthiazol-5-yl)phenyl)ethyl)pyrrolidine-2-carboxamide], the maximal degradation (Dmax) under setting [4] was above 75%. Also, the 50% degradation concentration (DC50) under setting [5] is below 2.5 nM.

For the compound `Cc1ncsc1-c1ccc([C@H](C)NC(=O)[C@@H]2C[C@@H](O)CN2C(=O)[C@@H](c2cc(OCCCc3ccc(C(C)n4cc(-c5cc(-c6ccccc6O)nnc5N)cn4)cc3)no2)C(C)C)cc1` (stereo partly drawn) [compound 60, (2S,4R)-1-((2R)-2-(3-(3-(4-(1-(4-(3-amino-6-(2-hydroxyphenyl)pyridazin-4-yl)-1H-pyrazol-1-yl)ethyl)phenyl)propoxy)isoxazol-5-yl)-3-methylbutanoyl)-4-hydroxy-N-((S)-1-(4-(4-methylthiazol-5-yl)phenyl)ethyl)pyrrolidine-2-carboxamide], under setting [2], the DC50 is below 2.5 nM. For the same compound, the Dmax under setting [3] is above 75%.

Regarding `Cc1ncsc1-c1ccc([C@H](C)NC(=O)[C@@H]2C[C@@H](O)CN2C(=O)[C@@H](c2cc(OCCC3CCN(C[C@H]4C[C@H](Oc5cc(N6C7CCC6CN(c6cc(-c8ccccc8O)nnc6N)C7)ccn5)C4)CC3)no2)C(C)C)cc1` [compound 417, (2S,4R)-1-((2R)-2-(3-(2-(1-(((1r,3R)-3-((4-(3-(3-amino-6-(2-hydroxyphenyl)pyridazin-4-yl)-3,8-diazabicyclo[3.2.1]octan-8-yl)pyridin-2-yl)oxy)cyclobutyl)methyl)piperidin-4-yl)ethoxy)isoxazol-5-yl)-3-methylbutanoyl)-4-hydroxy-N-((S)-1-(4-(4-methylthiazol-5-yl)phenyl)ethyl)pyrrolidine-2-carboxamide], the greatest degradation seen (Dmax) under setting [4] is above 75%. Further, under “degradation of BRM, read-out: BRM DC50”, the DC50 was below 2.5 nM.

With `Cc1cc([C@H](C(=O)N2C[C@H](O)C[C@H]2C(=O)N[C@@H](C)c2ccc(-c3scnc3C)cc2)[C@H](C)COCCCCn2cc(-c3cc(-c4ccccc4O)nnc3N)cn2)on1` [compound 558, (2S,4R)-1-((2R,3S)-4-(4-(4-(3-amino-6-(2-hydroxyphenyl)pyridazin-4-yl)-1H-pyrazol-1-yl)butoxy)-3-methyl-2-(3-methylisoxazol-5-yl)butanoyl)-4-hydroxy-N-((S)-1-(4-(4-methylthiazol-5-yl)phenyl)ethyl) pyrrolidine-2-carboxamide], the DC50 under setting [1] is above 30 nM.

Regarding `Cc1ncsc1-c1ccc([C@H](C)NC(=O)[C@@H]2C[C@@H](O)CN2C(=O)[C@@H](c2cc(N3CCC(CN4CCC(CCOc5cc(N6C7CCC6CN(c6cc(-c8ccccc8O)nnc6N)C7)ccn5)CC4)CC3)no2)C(C)C)cc1` [compound 604, (2S,4R)-1-((2R)-2-(3-(4-((4-(2-((4-(3-(3-amino-6-(2-hydroxyphenyl)pyridazin-4-yl)-3,8-diazabicyclo[3.2.1]octan-8-yl)pyridin-2-yl)oxy)ethyl)piperidin-1-yl)methyl)piperidin-1-yl)isoxazol-5-yl)-3-methylbutanoyl)-4-hydroxy-N-((S)-1-(4-(4-methylthiazol-5-yl)phenyl)ethyl)pyrrolidine-2-carboxamide], the maximal degradation (Dmax) under setting [6] was above 75%. In addition, the half-maximal degradation concentration (DC50) under setting [1] was below 2.5 nM.

Take `Cc1ncsc1-c1ccc([C@H](C)NC(=O)[C@@H]2C[C@@H](O)CN2C(=O)[C@H](c2cc(OCCN3CCN(CC#CCN4CCOC5(CCN(c6cc(-c7ccccc7O)nnc6N)CC5)C4)CC3)no2)C(C)C)cc1` [compound 187, (2S,4R)-1-((S)-2-(3-(2-(4-(4-(9-(3-amino-6-(2-hydroxyphenyl)pyridazin-4-yl)-1-oxa-4,9-diazaspiro[5.5]undecan-4-yl)but-2-yn-1-yl)piperazin-1-yl)ethoxy)isoxazol-5-yl)-3-methylbutanoyl)-4-hydroxy-N-((S)-1-(4-(4-methylthiazol-5-yl)phenyl)ethyl)pyrrolidine-2-carboxamide]: under setting [2], the DC50 was above 30 nM.

Regarding `CC(C)[C@@H](C(=O)N1C[C@H](O)C[C@H]1C(=O)N[C@@H](C)c1ccc(C(F)(F)F)cc1)c1cc(OCCN2CCC(O[C@H]3C[C@H](Oc4cc(N5C6CCC5CN(c5cc(-c7ccccc7O)nnc5N)C6)ccn4)C3)CC2)no1` [compound 248, (2S,4R)-1-((2R)-2-(3-(2-(4-((1r,3R)-3-((4-(3-(3-amino-6-(2-hydroxyphenyl)pyridazin-4-yl)-3,8-diazabicyclo[3.2.1]octan-8-yl)pyridin-2-yl)oxy)cyclobutoxy)piperidin-1-yl)ethoxy)isoxazol-5-yl)-3-methylbutanoyl)-4-hydroxy-N-((S)-1-(4-(trifluoromethyl)phenyl)ethyl) pyrrolidine-2-carboxamide], the DC50 under setting [2] was above 30 nM.

For the compound `Cc1ncsc1-c1ccc([C@H](C)NC(=O)[C@@H]2C[C@@H](O)CN2C(=O)[C@@H](c2cc(OCC[C@@H]3CCN(C[C@H]4C[C@H](Oc5cc(N6C7CCC6CN(c6cc(-c8ccccc8O)nnc6N)C7)ccn5)C4)[C@H](C)[C@@H]3C)no2)C(C)C)cc1` (single isomer, unassigned) [compound 584], the greatest degradation seen (Dmax) under setting [6] was above 75%. Besides, under setting [1], the DC50 is below 2.5 nM.

With `Cc1ncsc1-c1ccc([C@H](C)NC(=O)[C@@H]2C[C@@H](O)CN2C(=O)[C@H](c2cc(OCCN3CCC(O[C@H]4C[C@H](Oc5cnnc(N6C7CCC6CN(c6cc(-c8ccccc8O)nnc6N)C7)c5)C4)CC3)no2)C(C)C)cc1` [compound 470, (2S,4R)-1-((2S)-2-(3-(2-(4-((1r,3S)-3-((6-(3-(3-amino-6-(2-hydroxyphenyl)pyridazin-4-yl)-3,8-diazabicyclo[3.2.1]octan-8-yl)pyridazin-4-yl)oxy)cyclobutoxy)piperidin-1-yl)ethoxy)isoxazol-5-yl)-3-methylbutanoyl)-4-hydroxy-N-((S)-1-(4-(4-methylthiazol-5-yl)phenyl)ethyl)pyrrolidine-2-carboxamide], the half-maximal degradation concentration (DC50) under setting [5] is above 30 nM.

For the compound `Cc1ncsc1-c1ccc(CNC(=O)[C@@H]2C[C@@H](O)CN2C(=O)[C@H](c2cc(OCCOCCOCCCCN3CCOC4(CCN(c5cc(-c6ccccc6O)nnc5N)CC4)C3)no2)C(C)C)cc1` [compound 36, (2S,4R)-1-[(2S)-2-(3-[2-[2-(4-[9-[3-amino-6-(2-hydroxyphenyl)pyridazin-4-yl]-1-oxa-4,9-diazaspiro[5.5]undecan-4-yl]butoxy)ethoxy]ethoxy]-1,2-oxazol-5-yl)-3-methylbutanoyl]-4-hydroxy-N-[[4-(4-methyl-1,3-thiazol-5-yl)phenyl]methyl]pyrrolidine-2-carboxamide], under setting [2], the DC50 is above 30 nM. In addition, the Dmax under setting [3] is 50 to 75%.

With `Cc1ncsc1-c1ccc([C@H](CCO)NC(=O)[C@@H]2C[C@@H](O)CN2C(=O)[C@@H](c2cc(N3CCC(CN4CCC(O[C@H]5C[C@H](Oc6cc(N7C8CCC7CN(c7cc(-c9ccccc9O)nnc7N)C8)ccn6)C5)CC4)CC3)no2)C(C)C)cc1` [compound 661, (2S,4R)-1-((2R)-2-(3-(4-((4-((1r,3r)-3-((4-(3-(3-amino-6-(2-hydroxyphenyl)pyridazin-4-yl)-3,8-diazabicyclo[3.2.1]octan-8-yl)pyridin-2-yl)oxy)cyclobutoxy)piperidin-1-yl)methyl)piperidin-1-yl)isoxazol-5-yl)-3-methylbutanoyl)-4-hydroxy-N-((S)-3-hydroxy-1-(4-(4-methylthiazol-5-yl)phenyl)propyl)pyrrolidine-2-carboxamide], under setting [2], the 50% degradation concentration (DC50) was below 2.5 nM. For the same compound, the Dmax (BRM degradation, SW1573 cells, read-out: Dmax (% degraded)) is above 75%.

(Values after US12539292B2, “BRM targeting compounds and associated methods of use” (Arvinas Operations, Inc., priority 2018, dated 2026).)
